US4015002A, “1-Aryl-2-oxo-2,4,5,6,7,7a-hexahydro-indoles, salts, pharmaceutical compositions and methods of use” (Laboratoire Roger Bellon, priority 1974, dated 1977)
Values after ≈ are worked out from the molar mass of the structure shown. Where two headings read alike, the source gives them in different places.

Columns and labels:
[1] = Toxicity, intravenous in the mouse; conditions: in vivo, i.v.
Experimental: The toxicities of the various compound were determined intravenously in the mouse.

[2] = tested on: isolated heart of the rabbit; experiment: Cardiac action on the isolated heart of a rabbit (Langendorf preparation); conditions: for EC20: Oryctolagus cuniculus, direction arrow is a drawing
Experimental: (§1) This was examined according to known methods in the isolated auricle (Trevan preparation) and in the isolated heart of a rabbit (Langendorf preparation).
In the Langendorf preparation, the action of the compounds was determined from three parameters; the amplitude of contractions, coronary delivery, and rhythm. […] The results are indicated in Table 1; an arrow ↓ indicates a diminution, and an arrow ↑ an augmentation.

anaethestized dog = experiment: Action on femoral delivery, aortal pressure and cardiac rhythm in the anaesthetized dog; assay type: in vivo; conditions: for Aortal pressure, maximum variation in 30 minutes / Cardiac Rhythm, maximum variation in 30 minutes / Femoral Delivery, maximum variation in 30 minutes: i.v. perfusion over 5 min, dose 1/10 of mouse LD50, percent based on initial values; for Aortal pressure (in words) / Cardiac frequency (in words) / Vasodilator action (in words): anaesthetized dog, i.v.; for Vasodilator action (in words): 1/10 of mouse LD50
Experimental: This was investigated in an anaethestized dog, the compounds under test being administered by intraveneous perfusion (over 5 minutes). The various compounds under test were compared by administering all of them at a dose per kilogram corresponding to 1/10 of the mouse LD50 (I.V.).
Simultaneously were measured: variations of femoral delivery, aortal pressure, and cardiac rhythm. Table II indicates the maximum variations of these different parameters observed over the 30 minutes which followed administration of various compounds. These variations are expressed in percent based on the initial values.

isolated auricle = experiment: Cardiac action on the isolated auricle (Trevan preparation): amplitude of contractions; conditions: arrows for diminution/increase are drawings, 0 = inactive, read-out: Action on the isolated auricle: minimum concentration producing a variation of 20% in amplitude of contractions
Experimental: as §1
Cardiac action of the compounds in question was evaluated according to the amplitude of contractions of the isolated auricle.

[3] = read-out: Amplitude of contractions: concentration producing a variation of 20%
[4] = read-out: Coronary delivery: concentration producing a variation of 20%
[5] = read-out: Rhythm: concentration producing a variation of 20%

Row | Compound | LD50 [1] [mg/kg] | EC20 [2, 3] [µg/mL] | Aortal pressure, maximum variation in 30 minutes (anaethestized dog) [%] | Cardiac Rhythm, maximum variation in 30 minutes (anaethestized dog) [%] | EC20 (isolated auricle) [µg/mL] | EC20 [2, 4] [µg/mL] | EC20 [2, 5] [µg/mL] | Femoral Delivery, maximum variation in 30 minutes (anaethestized dog) [%] | Coronary delivery (in words) [2] | Aortal pressure (in words) (anaethestized dog) | Cardiac frequency (in words) (anaethestized dog) | Vasodilator action (in words) (anaethestized dog)
1 | CCN(CC)CCOc1ccc(N2C(=O)C=C3CCCCC32)cc1 (centres unmarked) [Example 1, 1-[4-(2-diethylaminoethoxy)-phenyl] -2-oxo-2,4,5,6,7,7a-hexahydro-indole] | 150 | 5 (≈ 15.2 µM) | 0 | 0 | 20 (≈ 60.9 µM) |  |  |  |  |  |  | 
2 | CN(C)CCOc1ccc(N2C(=O)C=C3CCCCC32)cc1 (centres unmarked) [Example 5, 1-[4-(2-Dimethylaminoethoxy)-phenyl]-2-oxo-2,4,5,6,7,7a-hexahydro-indole] | 90 | 1 (≈ 3.33 µM) | 0 |  | 50 (≈ 166 µM) | 20 (≈ 66.6 µM) | 10 (≈ 33.3 µM) | 0 |  |  |  | 
3 | O=C1C=C2CCCCC2N1c1ccc(OCCN2CCCCC2)cc1 (centres unmarked) [Example 6, 1-[4-(2-Piperidinoethoxy)-phenyl]-2-oxo-2,4,5,6,7,7a-hexahydro-indole] | 40 | 1 (≈ 2.94 µM) | 0 |  | 10 (≈ 29.4 µM) | 20 (≈ 58.7 µM) | 20 (≈ 58.7 µM) | 0 |  |  |  | 
4 | CC(C)N(CCOc1ccc(N2C(=O)C=C3CCCCC32)cc1)C(C)C (centres unmarked) [Example 7, 1-[4-(2Diisopropylaminoethoxy)-phenyl]-2-oxo-2,4,5,6,7,7a-hexahydro-indole] | 85 | 1 (≈ 2.8 µM) | 0 | 0 | 10 (≈ 28 µM) |  | 20 (≈ 56.1 µM) |  |  |  |  | 
5 | CN(C)CCCOc1ccc(N2C(=O)C=C3CCCCC32)cc1 (centres unmarked) [Example 8, 1-[4-(3-Dimethylaminopropoxy)-phenyl]-2-oxo-2,4,5,6,7,7 a-hexahydro-indole] | 85 | 1 (≈ 3.18 µM) | 0 |  | 10 (≈ 31.8 µM) |  | 5 (≈ 15.9 µM) |  |  |  |  | 
6 | O=C1C=C2CCCCC2N1c1cccc(OCCN2CCOCC2)c1 (centres unmarked) [Example 9, 1-[3-(2-Morpholinoethoxy)-phenyl]-2-oxo-2,4,5,6,7,7a-hexahydro-indole] | 170 | 1 (≈ 2.92 µM) | 0 |  | 50 (≈ 146 µM) | 20 (≈ 58.4 µM) |  |  | augmented |  |  | 
7 | O=C1C=C2CCCCC2N1c1cccc(OCCN2CCCCC2)c1 (centres unmarked) [Example 10, 1-[3-(2-piperidinoethoxy)-phenyl]-2-oxo-2,4,5,6,7,7a-hexahydro-indole] | 130 | 1 (≈ 2.94 µM) |  |  | 5 (≈ 14.7 µM) | 20 (≈ 58.7 µM) | 20 (≈ 58.7 µM) |  |  | hypotension | tachycardia | vasodilators
8 | CCN(CC)CCOc1cccc(N2C(=O)C=C3CCCCC32)c1 (centres unmarked) [Example 11, 1-[3-(2-Diethylaminoethoxy)-phenyl]-2-oxo-2,4,5,6,7,7a-hexahydro-indole] | 90 | 2 (≈ 6.09 µM) | 0 |  | 10 (≈ 30.4 µM) |  | 10 (≈ 30.4 µM) |  |  | without modifying aortal pressure | without modifying aortal pressure or cardiac frequency | clearly vasodilators
9 | CN(C)CCOc1cccc(N2C(=O)C=C3CCCCC32)c1 (centres unmarked) [Example 12, 1-[3-(2-Dimethylaminoethoxy)-phenyl]-2-oxo-2,4,5,6,7,7a-hexahydro-indole] | 27.5 | 1 (≈ 3.33 µM) |  |  | 10 (≈ 33.3 µM) |  | 5 (≈ 16.6 µM) |  |  | hypotension | tachycardia | vasodilators
10 | CC(C)N(CCOc1cccc(N2C(=O)C=C3CCCCC32)c1)C(C)C (centres unmarked) [Example 13, 1-[3-(2-Diisopropylaminoethoxy)-phenyl]-2-oxo-2,4,5,6,7,7a-hexahydro-indole] | 55 | 1 (≈ 2.8 µM) |  |  | 5 (≈ 14 µM) |  | 20 (≈ 56.1 µM) |  |  | hypertensives |  | 
11 | O=C1C=C2CCCCC2N1c1ccc(OCCN2CCCCC2)c(Cl)c1 (centres unmarked) [Example 14, 1-[3-chloro-4-(2-piperidinoethoxy)-phenyl]-2-oxo-2,4,5,6,7,7a-hexahydro-indole] | 25 | 1 (≈ 2.67 µM) | 0 |  | 10 (≈ 26.7 µM) |  | 20 (≈ 53.3 µM) |  |  | without modifying aortal pressure | without modifying aortal pressure or cardiac frequency | clearly vasodilators
12 | CCN(CC)CCOc1ccc(N2C(=O)C=C3CCCCC32)cc1Cl (centres unmarked) [Example 16, 1-[3-Chloro-4-(2-diethylaminoethoxy)-phenyl]-2-oxo-2,4,5,6,7,7a-hexahydro-indole] | 22 | 1 (≈ 2.76 µM) | 0 |  | 5 (≈ 13.8 µM) |  | 1 (≈ 2.76 µM) |  |  |  |  | 
13 | O=C1C=C2CCCCC2N1c1ccc(OCCN2CCOCC2)c(Cl)c1 (centres unmarked) [Example 17, 1-[3-Chloro-4-(2-morpholinoethoxy)-phenyl]-2-oxo-2,4,5,6,7,7a-hexahydro-indole] | 120 | 1 (≈ 2.65 µM) | 0 |  |  | 50 (≈ 133 µM) | 20 (≈ 53.1 µM) |  | augmented |  |  | 
14 | CC(C)N(CCOc1ccc(N2C(=O)C=C3CCCCC32)cc1Cl)C(C)C (centres unmarked) [Example 18, 1-[3-Chloro-4-(2-diisopropylaminoethoxy)-phenyl]-2-oxo-2,4,5,6,7,7a-hexahydro-indole] | 150 | 1 (≈ 2.56 µM) |  |  | 5 (≈ 12.8 µM) |  |  |  |  | hypertensives |  | 
15 | CN(C)CCOc1ccc(N2C(=O)C(c3ccccc3)=C3CCCCC32)cc1 (centres unmarked) [Example 19, 1-[4-(2-Dimethylaminoethoxy)-phenyl]-2-oxo-3-phenyl-2,4,5,6,7,7a-hexahydro-indole] | 10 | 1 (≈ 2.66 µM) |  |  | 20 (≈ 53.1 µM) | 5 (≈ 13.3 µM) | 10 (≈ 26.6 µM) | 0 | augmented |  |  | 
16 | CCN(CC)CCOc1ccc(N2C(=O)C(c3ccccc3)=C3CCCCC32)cc1 (centres unmarked) [Example 20, 1-[4-(2-diethylaminoethoxy)-phenyl]-2-oxo-3-phenyl-2,4,5,6,7,7a-hexahydro-indole] | 38 | 1 (≈ 2.47 µM) | 0 |  | 2 (≈ 4.94 µM) | 5 (≈ 12.4 µM) | 5 (≈ 12.4 µM) | 0 | augmented |  |  | 
17 | O=C1C(c2ccccc2)=C2CCCCC2N1c1ccc(OCCN2CCOCC2)cc1 (centres unmarked) [Example 21, 1-[4-(2-morpholinoethoxy)-phenyl]-2-oxo-3-phenyl-2,4,5,6,7,7a-hexahydro-indole] | 55 | 1 (≈ 2.39 µM) | 0 | 0 | 20 (≈ 47.8 µM) | 2 (≈ 4.78 µM) | 10 (≈ 23.9 µM) |  | augmented |  |  | 
